Laboratory results as given in US20140315838A1, “Methods of Treating Recurring Bacterial Infection” (Optimer Pharmaceuticals, Inc., priority 2010, published 2014).

System: Clostridium difficile
Experiment: Phase 3 randomized, double-blind clinical trials of 10-day treatment of C. difficile infection: recurrence rate
Assay type: in vivo, human
Conditions: 10-day oral treatment (fidaxomicin 200 mg bid, vancomycin 125 mg qid), relapse out to 4 weeks after end of treatment
Description: Subjects with mild to moderate C. difficile, males and females aged […] with >3 diarrheal (liquid or unformed) stools/day and with a positive enzyme immunoassay for C. difficile toxin or cell cytotoxicity assay and no more than 24 hours of prior treatment for C. difficile were eligible for enrollment. Only subjects with a primary episode or first relapse of disease were eligible. […] Subjects with ileus, WBC >30×10^9/L, toxic megacolon, or concern about life-threatening CDI were excluded from study entry. Subjects with severe underlying disease who were not expected to survive for 72 hours regardless of cause, who had had more than a single occurrence within 3 months, or who had Crohn's disease or ulcerative colitis were also excluded. […] They were evaluated for clinical cure at end of therapy and relapse out to 4 weeks following the end of treatment.

[1] = Stratum: Single Prior Episode of CDI (recurring CDI)

| Structure (SMILES) | Recurrence Rate [1] | Recurrence Rate (Stratum: Single Prior Episode of CDI (recurring CDI), listed as vancomycin) [%] | Recurrence Rate (Stratum: No Prior Episode of CDI) | Recurrence Rate (Stratum: Single Prior Episode of CDI (recurring CDI), listed as fidaxomicin) [%] |
| --- | --- | --- | --- | --- |
| CN[C@H](CC(C)C)C(=O)N[C@H]1C(=O)N[C@@H](CC(N)=O)C(=O)N[C@H]2C(=O)N[C@H]3C(=O)N[C@H](C(=O)N[C@H](C(=O)O)c4cc(O)cc(O)c4-c4cc3ccc4O)[C@H](O)c3ccc(c(Cl)c3)Oc3cc2cc(c3O[C@@H]2O[C@H](CO)[C@@H](O)[C@H](O)[C@H]2O[C@H]2C[C@](C)(N)[C@H](O)[C@H](C)O2)Oc2ccc(cc2Cl)[C@H]1O [Vancomycin, reference compound] | 22/62 (35.5%) | 35.5 |  |  |
| CCc1c(Cl)c(O)c(Cl)c(O)c1C(=O)O[C@H]1[C@H](O)[C@H](OC)[C@H](OC/C2=C\C=C\C[C@H](O)/C(C)=C/[C@H](CC)[C@@H](O[C@@H]3OC(C)(C)[C@@H](OC(=O)C(C)C)[C@H](O)[C@@H]3O)/C(C)=C/C(C)=C/C[C@@H]([C@@H](C)O)OC2=O)O[C@@H]1C [Fidaxomicin] | 13/66 (19.6%) |  | 38/325 (11.6%) | 19.6 |
